Reference: paper PMC7376718, “Flavonoids isolated from the South African weed Chromolaena odorata (Asteraceae) have pharmacological activity against uropathogens” (BMC Complementary Medicine and Therapies, 2020)
Values after ≈ are worked out from the molar mass of the structure shown. Like-named read-outs stand apart in the source and are kept apart here.

Experiments:
E. coli [1] = test: Metabolic activity inhibition (INT); type: cell-based, Escherichia coli
Protocol: (§1) The ability of the isolated compounds to inhibit the bacterial metabolic activity was tested against E. coli and S. aureus following the method used by Ramage and Lopez-Ribot with slight modification. The organisms were inoculated in a 96-well microplate following the same biofilm assay procedure described above. The final concentration of each compound in the wells was 0.016 mg/mL, 0.031 mg/mL, 0.063 mg/mL, 0.125 mg/mL and 1 mg/mL respectively. After 24 h of incubation with samples, the plates were washed three times with sterile distilled water and 50 μL of 1 mg/mL INT was added to each well and further incubated in the dark for 2 h. After incubation, absorbance was read at 490 nm using a microplate reader and the percentages of reduction of bacterial metabolic activity in the presence of different concentrations of compounds were calculated using the formula:
(§2) percentage inhibiton=mean of culture control−mean of sample/mean of culture controlx100

Vero monkey kidney cells = test: in vitro; conditions: Vero
Protocol: (§3) Different concentrations of the compounds ranging from 0.003 to 0.2 mg/mL were tested for cytotoxicity against three cell lines; Vero monkey kidney, C3A and Caco2. Vero cells were grown and maintained in MEM, supplemented with 0.1% gentamicin and 5% foetal calf serum, while Caco2 and C3A cells were grown and maintained in DMEM supplemented with 10% foetal calf serum, 1% non-essential amino acids and 1% penicillin-streptomycin. All cells were incubated in a 5% CO2 incubator at 37 °C. Doxorubicin chloride was used as positive control while 10% DMSO used in dissolving the test samples was used as the negative control. The 3-(4,5-dimethylthiazol)-2,5-diphenyl tetrazolium bromide (MTT) assay described by Mosmann with modification by McGaw et al. was used to determine the cytotoxicity of the test samples. The lethal concentration (LC50) value was calculated as the concentration of tested sample resulting in a 50% reduction of absorbance compared to untreated cells. Selectivity index (SI) values were calculated against the MIC using the formula: […]

in vitro [2] = test: in vitro
Protocol: as §3

in vitro [3] = test: in vitro; remark: listed apart in the source
Protocol: as §3

S. aureus [4] = test: Metabolic activity inhibition (INT); type: cell-based, Staphylococcus aureus
Protocol: as §1, §2

[5] = system: C. neoformans and A. fumigatus; test: Mean MIC over the fungal isolates; type: cell-based; conditions: all time points of Table 3
From the text: The cultures used were Escherichia coli (American Type Culture Collection, ATCC 25922) labelled as 1, E. coli isolates (B1989/17 and B1962/17) labelled as 2 and 3 from equine urine, collected from the Department of Veterinary Tropical Diseases, Faculty of Veterinary Science, University of Pretoria, South Africa, Klebsiella pneumoniae isolate from commercial chicken eggs, Enterococcus faecalis (ATCC 29212), Pseudomonas aeruginosa (ATCC 27853), Staphylococcus aureus (ATCC 29213), Candida albicans from a Gouldian finch, Aspergillus fumigatus from a chicken and Cryptococcus neoformans from a cheetah. These microbial strains were maintained on MHA or SDA for bacteria and fungi respectively, while the isolates were maintained on blood agar.
Ten mg/mL of each fraction and 1 mg/mL of isolated compounds were prepared in 10% DMSO and tested against S. aureus, E. coli, K. pneumoniae, E. faecalis, P. aeruginosa, C. albicans, C. neoformans and A. fumigatus. Cultures were prepared by inoculating each microbial strain from prepared agar plates into sterilized MHB for bacterial and SDB for fungi in sterile McCartney bottles respectively. The inoculums were placed in an orbital shaker incubator. Bacterial strains were incubated at 37 °C for 18 h. Each bacterial culture was diluted in fresh MHB and the absorbance was measured at a wavelength of 560 nm using a microplate reader (Epoch Biotek). The readings were compared to a McFarland standard No. 1 correlating to approximately 3 × 10^8 cfu/mL). For fungi strains, cultures were incubated at 30 °C for 24 h (C. albicans), 72 h (C. neoformans) and 120 h (A. fumigatus) respectively. The resultant cells and spores were washed with sterile normal saline and absorbance was measured at a wavelength of 560 nm and turbidity was adjusted to a McFarland standard 1.This was further diluted in a 1:10 ratio in SDB to a turbidity of 5 × 10^5 cfu/mL. These diluted cultures (bacterial and fungi) were used for the screening following the serial microdilution method of Eloff.

S. aureus [6] = system: S. aureus; set-up: method as in earlier work; conditions: ref [70] Teffo et al.; cited from earlier work
Caco2 cells = test: in vitro; conditions: Caco2
Protocol: as §3

E. coli [7] = system: E. coli; set-up: method as in earlier work; conditions: ref [70] Teffo et al.; cited from earlier work

Structure (SMILES): COc1ccc(C2CC(=O)c3c(OC)cc(OC)cc3O2)cc1 (racemic) [Compound 2, (±)-4′,5,7-trimethoxy flavanone]
- Metabolic activity inhibition (verdict in words) (E. coli [1]): good
- Selectivity index (LC50/MIC) (Vero monkey kidney cells; C. neoformans 48 h): 12.625
- Selectivity index (LC50/MIC) (Vero monkey kidney cells; C. neoformans 72 h): 1.616
- Selectivity index (LC50/MIC) (Vero monkey kidney cells; E. coli (1)): 6.515
- Selectivity index (LC50/MIC) (Vero monkey kidney cells; E. coli (2)): 6.452
- Selectivity index (LC50/MIC) (Vero monkey kidney cells; E. coli (3)): 6.452
- Selectivity index (LC50/MIC) (Vero monkey kidney cells; K. pneumoniae): 1.616
- Selectivity index (LC50/MIC) (Vero monkey kidney cells; S. aureus): 6.516
- CC50 (in vitro [2]): 200 µg/mL (≈ 636 µM)
- CC50 (in vitro [3]): > 200 µg/mL
- Metabolic activity inhibition (verdict in words) (S. aureus [4]): good
- Metabolic activity inhibition (verdict in words) (S. aureus [4]; planktonic stage, MIC of 0.063 mg/mL): did not show inhibition
- MIC [5]: 70 ± 60 µg/mL (≈ 223 µM)
- Mean MIC [5]: 70 µg/mL

Structure (SMILES): COc1ccc(-c2oc3cc(OC)cc(O)c3c(=O)c2OC)cc1 [Compound 3, 5-hydroxy-3,7,4′-trimethoxyflavone]
- Metabolic activity inhibition (verdict in words) (E. coli [1]): good
- MIC / antibacterial activity (S. aureus [6]): no activity was recorded
- Selectivity index (LC50/MIC) (Vero monkey kidney cells; A. fumigatus 48 h): 6.355
- Selectivity index (LC50/MIC) (Vero monkey kidney cells; E. coli (1)): 3.127
- Selectivity index (LC50/MIC) (Vero monkey kidney cells; E. coli (2)): 0.788
- Selectivity index (LC50/MIC) (Vero monkey kidney cells; E. coli (3)): 0.788
- Selectivity index (LC50/MIC) (Vero monkey kidney cells; K. pneumoniae): 1.576
- Selectivity index (LC50/MIC) (Vero monkey kidney cells; S. aureus): 12.313
- Selectivity index (LC50/MIC) (Caco2 cells; A. fumigatus 48 h): 5.129
- Selectivity index (LC50/MIC) (Caco2 cells; E. coli (1)): 2.52
- Selectivity index (LC50/MIC) (Caco2 cells; E. coli (2)): 0.636
- Selectivity index (LC50/MIC) (Caco2 cells; E. coli (3)): 0.636
- Selectivity index (LC50/MIC) (Caco2 cells; K. pneumoniae): 1.272
- Selectivity index (LC50/MIC) (Caco2 cells; S. aureus): 9.938
- Metabolic activity inhibition (verdict in words) (S. aureus [4]): good
- MIC / antibacterial activity (E. coli [7]): no activity was recorded
